Assay results from patent US20200230207A1, “TREATMENT OF BONE GROWTH DISORDERS” (FONDAZIONE TELETHON, priority 2015, published 2020).
Square brackets hold non-standard residues; d marks the D form. Ends that are not written are not given here. Peptide text beside a SMILES is read from it. * marks the point of attachment. Cbz = O=C(OCc1ccccc1)*

Tests used:
[1] = test system: growth plate chondrocytes; assay: LC3II in femoral growth plates after leupeptin injection; assay type: in vivo, mouse
Procedure: FIG. 9: a, Comparative TEM images of P0 and P6 wild type growth plate chondrocytes showing increased autophagosomes (AV) biogenesis at P6. Arrows indicate AVs. Bar graphs show number and size of AVs within 5.3 μm field of view (values represent mean±s.e.m. Student's t-test **p<0.005). b, Western blot analysis of LC3I/II of femoral growth plates from mice at indicated ages. Mice were injected with leupeptin (40 mg/kg i.p. 6h before sacrifice) where indicated. β-actin was used as loading control. Bar graphs show quantification of LC3II protein relative to β-actin (mean±s.e.m. *p<0.05 Student's t-test. n=3/group). c, Representative Western blot analysis of Atg7, LC3 and SQSTM1 (p62) proteins in Atg7 f/f, Col2a1-Cre; Atg7 f/f and Prx1-Cre; Atg7 f/f growth plate lysates. […]
FIG. 15: a, Representative images of high content imaging analysis of primary chondrocytes isolated from GFP-LC3 transgenic mice and treated with vehicle or FGF18 (25 ng /ml for 24 h). […] Scale bar 50 μm. b, Quantification of green vesicles (AVs) in cells treated with the indicated factors for 24h. Vesicles were counted in at least 1000 cells/treatment. […] Bar graphs show % of red vesicles (autolysosomes) and of total vesicles relative to vehicle (Values represent mean values±s.d. At least 10 cells/experiment were analyzed from 3 independent experiments. *p<0.05 ***p<0.0005. Student's t-test). […]

[2] = test system: FGFR3ach and FGFR3TD chondrocytes; assay: LC3II in FGFR3 WT, FGFR3ach and FGFR3TD chondrocytes with lysosomal inhibitors; assay type: cell-based, rat; conditions: leupeptin 50 μM 2 h; bafilomycin 200 nM 4 h
Procedure: Bars graphs represent LC3II quantification relative to β-actin. […] Graphs show representative histograms.
Leupeptin and bafilomycin treatments: Leupeptin (Sigma) was resuspended in water at 10 mM. FGFR3 wild type, FGFR3ach and FGFR3TD stable chondrocytes cell line were treated with 50 μM leupeptin for 2 h at 37° C. Bafilomycin (Millipore) was resuspended in DMSO at 200 μM. FGFR3 wild type, FGFR3 ach and FGFR3TD stable chondrocytes cell line were treated with 200 nM bafilomycin for 4 h at 37° C.

GusbKO chondrocytes = assay: Protein degradation and mTORC1 signaling in GusbKO RCS chondrocytes with Mg132; assay type: cell-based, rat
Procedure: FIG. 23: G, WT and GusbKO RCS cells were pulse labelled for 18h with ^3H-Ser and chased for 48h in medium containing vehicle or 100 nM Mg-132. The rate of protein degradation is shown as the fraction of radiolabelled protein remaining over time. Values are expressed as mean (±s.e.m.) of n=3 independent experiments (Student's t-test, * p<0.05, ** p<0.005). H, Luminescent signal resulting from the cleavage of a luminescent Suc-LLVY peptide by the chymotrypsin-like activity of the proteasome was measured in WT and GusbKO RCS cells after 6h treatment with aminoacids. Data are representative of 3 independent experiments and are graphed as relative fluorescence units (RFU) (Student's t-test, * p<0.05). I, Western blot analysis of mTORC1 signaling in WT and GusbKO RCS cells treated with Mg-132 (10 μM) or DMSO (−) for 6h. Arrowheads indicate specific band. J, Bar graphs displaying quantification of relative phosphorylation. Values are expressed as mean (±s.e.m.) of n=3 independent experiments (Student's t-test, * p<0.05, ** p<0.005).

Rx chondrocytes [3] = assay: Procollagen (PC2) secretion and trafficking in Rx chondrocytes; assay type: cell-based, rat
Procedure: FIG. 6: a, b, Quantification of secreted PC2 in control and Spautin-1-treated (24 h, 50 μM) (a) and Atg7-knockdown (KD; b) RCS chondrocytes after ER block release of PC2 (min). Ctrl, control. Mean values (±standard deviation (s.d.)) of 3 independent experiments. ANOVA, P=5.29×10^−5 (a), P=0.007 (b); Sidak post-hoc test, […], ***P<0.0005. c, PC2 localization in Golgi area and ER (HSP47) in vehicle and Spautin-1-treated (24 h, 50 μM) RCS chondrocytes 10 min after the ER block release of PC2. Bar graph represents the percentage (±s.d.) of cells containing PC2 in the indicated cellular compartment. N=60; n=3 independent experiments. Student's t-test, **P<0.005. Scale bar, 10 μm. d, Immunofluorescence of PC2, Sec31 and GFP-LC3 in RCS chondrocytes. The insets show higher magnification and single colour channels of the boxed area. N, nucleus. The data are representative of 5 independent experiments. Scale bar, 5 μm. e, Spinning-disk confocal image of RCS chondrocytes co-expressing GFP-LC3- and mCherry-PC2-tagged proteins. Arrows show PC2 molecules sequestered by GFP vesicles. The data are representative of 3 independent experiments. Scale bar, 10 μm. f, Time-lapse stills of PC2 and LC3 from the boxed region in e.
The insets show a high magnification of selected areas. […] The insets show a high magnification of selected areas. Red=collagen; Blue=DAPI. Scale bar 10 μm.
FIG. 14: a a, Immunofluorescence staining of HSP47 chaperone (red) in Atg7^fl/fl and Atg7^fl/fl; Prx1-Cre chondrocytes, showing altered HSP47 distribution in Prx1-Cre; Atg7^fl/fl chondrocytes. The data are representative of 3 independent experiments. Insets show a higher magnification of the boxed area. Scale bar, 10 μm. Blue, DAPI. b, Co-localization of PC2 with HSP47 in growth-plate chondrocytes of mice with indicated genotypes. The data are representative of 3 independent experiments. Scale bar, 20 μm. c, Altered HSP47 and PC2 trafficking in Spautin-1-treated chondrocytes. HSP47 and PC2 immunostaining in control (vehicle) or Spautin-1-treated RCS chondrocytes. Synchronized PC2 secretion was obtained after incubating chondrocytes for 3 h at 40° C. to block PC2 in the ER, and then shifting the temperature to 32° C. (ER block release) for 10 min. The data are representative of 2 independent experiments. Scale bar, 10 μm. d, Proposed model of autophagy function in chondrocytes. Autophagy in chondrocytes prevents PC2 aggregation and maintains ER homeostasis during the process of PC2 secretion. e, Confocal analysis of GFP-LAMP1 (green) and mCherry-PC2 (red) in vehicle- and Spautin-1-treated chondrocytes at the indicated time points (min) after the ER block release. The insets show a high magnification of the selected area. Scale bar, 5 μm. f, Quantification of GFP-LAMP1/mCherry-PC2 co-localization. Values represent mean±s.d. from three independent experiments. N=30. […] The data are representative of 2 independent experiments. Scale bar, 10 μm.
Live cell imaging: Rx chondrocytes were reverse transfected and plated in Mattek glass bottomed dishes. Collagen transport assays were performed by incubating cells at 40° C. on the heated stage for 2.5 h. Collagen release was initiated by lowering the temperature of the stage to 32° C. and medium being supplemented with 50 μg/ml ascorbate.
Procollagen secretion assay: To follow PC2 secretion in Rx chondrocytes, cells were pretreated ON with ascorbate (100 μg/ml) in DMEM without FCS. […]

Rx chondrocytes [4] = assay: Tandem mRFP-EGFP-LC3 autophagic flux in Rx chondrocytes; assay type: cell-based, rat; conditions: 25 ng/ml for 24 h
Procedure: (§1) FIG. 15: a, Representative images of high content imaging analysis of primary chondrocytes isolated from GFP-LC3 transgenic mice and treated with vehicle or FGF18 (25 ng /ml for 24 h). BafA1 was used where indicated for 4 h (200 nM). Green spots represent GFP labeled AVs. Scale bar 50 μm. b, Quantification of green vesicles (AVs) in cells treated with the indicated factors for 24h. Vesicles were counted in at least 1000 cells/treatment. Values represent mean values±s.d. of n=3 independent experiments; Statistical analysis was performed using repeated measure ANOVA with TUKEYs post-hoc test. **p<0.005. c, Western blot analysis of primary chondrocytes isolated from wild type mice treated as indicated (FGF18 25 ng/ml, 24 h). Where indicated BafA1 was added (200 nM, 4h). […] Bar graphs show % of red vesicles (autolysosomes) and of total vesicles relative to vehicle (Values represent mean values±s.d. At least 10 cells/experiment were analyzed from 3 independent experiments. *p<0.05 ***p<0.0005. Student's t-test). […] Quantification of data (mean±s.e.m of n=5 mice/group. *p<0.05, Student's t-test) f, Western blot analysis of Fgf18+/+ and Fgf18+/− growth plate lysates. […]

[5] = test system: rat model of osteoarthritis; conditions: intra articular injection; cited from earlier work
[6] = test system: primary chondrocytes isolated from GFP-LC3 mice; assay: High content GFP-LC3 vesicle count in primary chondrocytes; assay type: cell-based, mouse; conditions: in the presence of BafA1, 25 ng/ml for 24 h
Procedure: as §1, with “cells/treatment.” for “cells/treatment. Values represent mean values±s.d. of n=3 independent experiments; Statistical analysis was performed using repeated measure ANOVA with TUKEYs post-hoc test. **p<0.005. c, Western blot analysis of primary chondrocytes isolated from wild type mice treated as indicated (FGF18 25 ng/ml, 24 h). Where indicated BafA1 was added (200 nM, 4h).”
High content screening analysis in GFP-LC3 primary chondrocytes: Primary chondrocytes were plated in CellCarrier-96 Black plates (6005558, Perkin Elmer). […] To carry out the analysis the number of cytoplasmic GFP-LC3 spots in the cytoplasm of Col2 positive cells were counted, and expressed per cell. Levels of colocalization between GFP-LC3 and Col2a1 were assessed and expressed as %, using the parameters: area of colocalization of red spots with area of green spots normalized to total area of green spots. […]

VPS34-Beclin 1 complex = assay: Bcl2 phosphorylation, Beclin 1 co-immunoprecipitation and PI3K assay in Rx chondrocytes; assay type: cell-based, rat; conditions: 25 ng/ml
MPSVII mice [7] = assay: Growth plate histology, BrDU index and collagen in MPSVII mice; assay type: in vivo, mouse; conditions: 2 mg/kg i.p. daily, P15
MPSVII mice [8] = assay: Femur and tibia lengths in MPSVII mice; assay type: in vivo, mouse; conditions: 2 mg/kg i.p. daily, P15 and P30
Procedure: (§2) Control mice were injected with vehicle only. Mice were sacrificed after 15 (P15) and 30 (P30) days.
(§3) Skeletal staining: Skeletons were fixed in 95% ethanol overnight (ON) and stained with alcian blue and alizarin red according to standardized protocols (http://empress.har.mrc.ac.uk/browser/). Three to five mice of each genotype were analyzed per stage. Measurement of bone length was performed using ImageJ software.

MPSVI mice = assay: Femur and tibia lengths in MPSVI mice; assay type: in vivo, mouse; conditions: 2 mg/kg i.p. daily for 15 days, P15
Procedure: as §2, §3

[9] = synchronized PC2 secretion, 24 h, 50 μM

CC(=O)N[C@@H](CC(C)C)C(=O)N[C@@H](CC(C)C)C(=O)N[C@H](C=O)CCCNC(=N)N [Leupeptin]
LC3II levels in the growth plate of wild type mice ([1]; 40 mg/kg i.p. 6h before sacrifice, P2 and P6): further increased the levels of LC3II in the growth plate of P6 but not P2 mice
LC3II levels in the growth plate of control and Fgf18+/- mice ([1]; 40 mg/kg i.p. 6 h before sacrifice, P6): significantly increased LC3II levels in the growth plate of P6 control but not in Fgfl 8 mice
level of LC3II protein compared to FGFR3 wild type stable cells [2]: did not increase

CC(C)C[C@@H](C=O)NC(=O)[C@H](CC(C)C)NC(=O)[C@H](CC(C)C)NC(=O)OCc1ccccc1 [Mg132] (Cbz-Leu-Leu-Leu-aldehyde)
increased protein degradation rate of GusbKO chondrocytes (GusbKO chondrocytes; 100 nM, 48h chase): completely blunted
mTORC1 signaling (GusbKO chondrocytes; 10 μM, 6h): normalized

Fc1ccc(CNc2ncnc3ccc(F)cc23)cc1 [Spautin-1]
FGF18-induced increase of PC2 secretion (Rx chondrocytes [3]; Spautin-1 24h added to FGF18-stimulated cells): hampered this increase
ER to cis-Golgi trafficking of HSP47 (Rx chondrocytes [3]; cultured chondrocytes): inhibited
PC2 localization in the ER (Rx chondrocytes [3]; [9]): retention of PC2 in the ER
PC2 secretion (Rx chondrocytes [3]; [9]): defective PC2 secretion

FGF18: fibroblast growth factor 18 (Peprotech)
autophagic flux (autolysosome number) (Rx chondrocytes [4]): enhanced
repair of damaged cartilage [5]: can stimulate the repair of damaged cartilage
AV number (autophagosome biogenesis) [6]: increase significantly
interaction of Beclin 1-Bcl2 (VPS34-Beclin 1 complex; 2h): decreased
VPS34-Beclin 1 complex activity (PI3P levels produced) (VPS34-Beclin 1 complex; 2 h, JNK dependent): increases
phosphorylation of Bcl-2 (VPS34-Beclin 1 complex; 2h, JNK-dependent): increases
efficiency of PC2 secretion compared to non-stimulated cells (Rx chondrocytes [3]; FGF18 25 ng/ml): higher efficiency

RRRQRRKKRGYGGTGFEGDHWIEFTANFVNT ([dR][dR][dR][dQ][dR][dR][dK][dK][dR]G[dY]GG[dT]G[dF][dE]G[dD][dH][dW][dI][dE][dF][dT][dA][dN][dF][dV][dN][dT]; also: retro-inverso)
collagen levels in femoral and tibia cartilages (MPSVII mice [7]): normalizes
growth plate differentiation and proliferation defects (MPSVII mice [7]): normalizes
femoral and tibial growth retardation (MPSVII mice [8]): rescues
femoral and tibial growth retardation (MPSVI mice): rescues

bafilomycin
level of LC3II protein compared to FGFR3 wild type stable cells [2]: did not increase
